From patent publication US20230233492A1, “PHARMACEUTICAL COMBINATION COMPRISING A BRAIN AMINOPEPTIDASE A INHIBITOR, A DIURETIC AND A BLOCKER OF THE SYSTEMIC RENIN-ANGIOTENSIN SYSTEM” (QUANTUM GENOMICS, priority 2020, published 2023)

Legend:
[1] = system: conscious hypertensive DOCA-salt rats; assay: Acute oral administration: MABP and HR recording in conscious freely moving DOCA-salt rats; assay type: in vivo, rat; conditions: single oral administration
Protocol: Male deoxycorticosterone acetate (DOCA)-salt rats weighing 250 to 350 g were purchased from Charles River Laboratories (L'Arbresle, France). Animals were randomly assigned in each group with allocation concealment, and blinding procedures were used with coding systemAnimal care and surgical procedures were performed according to the Directive 2010/63/EU. The project was submitted to the appropriate ethics committee and authorization was obtained: 30 CEEA No 59, reference number 01962.01. Animals were kept under artificial light (12 h light/12 h dark cycle) with ad libitum access to a standard diet and saline water (0.9% NaCl, 0.2% KCl).
Male DOCA-salt rats were anesthetized with 3% isoflurane (Iso-Vet®, Piramal, UK) for induction and 1.5-2% isoflurane for maintenance. A catheter (0.011″X.024″X.0065″) was inserted into the right femoral artery to monitor mean arterial blood pressure (MABP) and heart rate (HR). The catheters were tunneled subcutaneously to exit from the neck. Animals were allowed to recover from surgery for at least 48 h before MABP recording. Baseline MABP was recorded before drug administration during 30 minutes to 1 hour. One hour after the start of BP recording, firibastat (30 mg/kg), enalapril (5 or 10 mg/kg) and HCTZ (5 or 10 mg/kg) alone or in combination at different doses were administered to the conscious unrestrained rats by oral route. After compound administration, BP was monitored for 6 hours. MABP was calculated with the […] system (Phymep, Paris, France), consisting of a MatLab hardware unit and CHART software, running on a Macintosh computer. MABP and HR measurements were calculated by the BP signal.

[2] = system: hypertensive patients; conditions: monotherapy; mild to moderate hypertensive patients and diverse high-risk hypertensive population; cited from earlier work
[3] = system: spontaneously hypertensive rats (SHRs); conditions: oral administrations, 15 to 150 mg/kg; cited from earlier work
[4] = system: conscious hypertensive deoxycorticosterone acetate (DOCA) salt rats; conditions: oral administrations, 15 to 150 mg/kg; cited from earlier work

Structure (SMILES): N[C@@H](CCS(=O)(=O)O)CSSC[C@@H](N)CCS(=O)(=O)O [firibastat, (3S,3S′) 4,4′-disulfanediylbis(3-aminobutane 1-sulfonic acid)]
- decrease in BP (change in MABP from baseline) ([1]; firibastat 30 mg/kg alone, 5 h post-dosing): −35.4±5.2 mmHg
- effect on BP [2]: lower BP
- effect on BP [3]: dose-dependent decrease in BP
- effect on BP [4]: dose-dependent decrease in BP

Structure (SMILES): NS(=O)(=O)c1cc2c(cc1Cl)NCNS2(=O)=O [HCTZ, hydrochlorothiazide]
- change in BP ([1]; HCTZ 10 mg/kg alone): did not induce any significant change in BP

Structure (SMILES): CCOC(=O)[C@H](CCc1ccccc1)N[C@@H](C)C(=O)N1CCC[C@H]1C(=O)O [enalapril]
- change in BP ([1]; enalapril 10 mg/kg alone): did not induce any significant change in BP
